Test results taken from US20110201620A1, “2-(3-AMINOARYL) AMINO-4-ARYL-THIAZOLES AND THEIR USE AS C-KIT INHIBITORS” (AB SCIENCE, priority 2002, published 2011).
Values joined by “and” are separate entries in the source; they are usually repeats but may differ in a detail not shown here. Equal values may be shown once.

Columns and labels:
Solubility = format: physicochemical
Method: For detailed procedure refer to patent WO/2008/098949. AB1010 is also manufactured by AB Science, S.A. (France), or by Prestwick Chemical, Inc. (France). The chemical structure was confirmed by nuclear magnetic resonance, mass spectrometry, ultraviolet and infrared spectrometry, and elemental analysis. […] The compound, a white powder, was prepared according to the art to provide tablets. Tablet containing masitinib was used for each experiment.

[1] = Phase 2 clinical trial in advanced GIST, safety assessment; format: in vivo, human
Source text: Methods; Patients: Patients enrolled in this study were aged over 18 years with inoperable, non-pretreated, histologically proven locally advanced or metastatic, c-Kit positive GIST. […] Exclusion criteria included: inadequate organ function defined via blood tests, severe liver or cardiac failure, and severe neurological or psychiatric disorders. Patients receiving a concomitant treatment within 4 weeks before inclusion, and pregnant or lactating women were also excluded. […] All adverse events (AEs), including abnormal serology or haematology, were recorded regardless of causality.

[2] = test system: locally advanced or metastatic, c-Kit positive GIST; assay: Phase 2 clinical trial in advanced GIST, efficacy (RECIST, FDG-PET, PFS, OS); format: in vivo, human
Source text: Methods; Patients: Patients enrolled in this study were aged over 18 years with inoperable, non-pretreated, histologically proven locally advanced or metastatic, c-Kit positive GIST. […] Exclusion criteria included: inadequate organ function defined via blood tests, severe liver or cardiac failure, and severe neurological or psychiatric disorders. Patients receiving a concomitant treatment within 4 weeks before inclusion, and pregnant or lactating women were also excluded. […] Time-to-event analyses were calculated from the date of first masitinib intake to the date of event (documented progression or death). Patients who had not progressed at the date of last tumor assessment were censored at that date for PFS. Patients alive at the time of the analysis were censored at the date of last contact for OS. Methods; Statistical analyses: Simon […] two-stage design was used for this prospective, multicenter, single-group, phase II trial. Fourteen patients were initially enrolled, with recruitment of an additional ten patients being dependent on the occurrence of at least one objective RECIST response. This population was further extended to a total of 30 patients to ensure a sufficient evaluable population for all end-points; the type I(α) error was 5% (two-sided) for all analyses. Quantitative variables were described by the number of filled and missing data, mean, standard deviation, median, minimum and maximum Qualitative variables were described by the number of missing data and, for each modality, frequency and percentage (referring to filled data). Time-to-event data were described using Kaplan-Meier (KM) estimates. The median was provided with its 95% confidence interval (95% CI). PFS rates were given every 6 months with KM estimates. All data analyses and reporting procedures used SAS v9.1 in a Windows XP operating system environment.

[3] = N = 30, Suspected: treatment related or not assessable
[4] = Kaplan-Meier estimate, listed as masitinib

Cc1ccc(NC(=O)c2ccc(CN3CCN(C)CC3)cc2)cc1Nc1nc(-c2cccnc2)cs1 [Compound 066, 4-(4-methyl-piperazin-1-ylmethyl)-N-[4-methyl-3-(4-pyridin-3-yl-thiazol-2-ylamino)-phenyl]-benzamide]
solubility in 0.1 M HCl (Solubility; 0.1 M HCl): freely soluble
solubility in 0.1 M NaOH (Solubility; 0.1 M NaOH): practically insoluble
solubility in dimethylsulfoxide (Solubility; dimethylsulfoxide): freely soluble
solubility in ethanol (Solubility; ethanol): slightly soluble
solubility in n-hexane (Solubility; n-hexane): practically insoluble
solubility in propylene glycol (Solubility; propylene glycol): slightly soluble
solubility in water (Solubility; water): soluble
patients reporting one grade 4 AE (skin exfoliation) ([1]; 1/30 patient): 3.3%
patients with treatment interruption for treatment-related haematological toxicity ([1]; 1/30 patient): 3%
patients with grade 3 treatment-related rash ([1]; 3/30 patients): 10%
patients experiencing serious adverse events (SAE) ([1]; 8/30 patients): 27%
patients with treatment interruption for non-haematological AEs ([1]; 13/30 patients): 43%
patients with at least one grade 3 treatment-related AE ([1]; 14/30 patients): 47%
patients with treatment interruption for more than 8 days ([1]; 16/30 patients): 53.3%
patients with treatment-related oedemas (all types) ([1]; 21/30 patients): 70%
patients reporting at least one treatment-related AE ([1]; ITT population): All patients
treatment-related toxicity per patient: abdominal pain ([1]; ITT population): 33%
treatment-related toxicity per patient: asthenia ([1]; ITT population): 83%
treatment-related toxicity per patient: cutaneous rash ([1]; ITT population): 40%
treatment-related toxicity per patient: diarrhoea ([1]; ITT population): 57%
treatment-related toxicity per patient: eye oedema ([1]; ITT population): 47%
treatment-related toxicity per patient: muscle spasms ([1]; ITT population): 40%
treatment-related toxicity per patient: nausea ([1]; ITT population): 47%
treatment-related toxicity per patient: peripheral oedema ([1]; ITT population): 20%
treatment-related toxicity per patient: pruritus ([1]; ITT population): 33%
treatment-related toxicity per patient: upper abdominal pain ([1]; ITT population): 23%
treatment-related toxicity per patient: vomiting ([1]; ITT population): 23%
Abdominal Pain Upper, All causalities, All grades ([1]; N = 30): 9 (30.0%) Number (%) of patients
Abdominal Pain, All causalities, All grades ([1]; N = 30): 16 (53.3%) Number (%) of patients
Abdominal Pain, All causalities, G3 + G4 ([1]; N = 30): 2 (6.7%) Number (%) of patients
Anaemia, All causalities, All grades ([1]; N = 30): 6 (20.0%) Number (%) of patients
Anaemia, All causalities, G3 + G4 ([1]; N = 30): 1 (3.3%) Number (%) of patients
Asthenia, All causalities, All grades ([1]; N = 30): 27 (90.0%) Number (%) of patients
Asthenia, All causalities, G3 + G4 ([1]; N = 30): 1 (3.3%) Number (%) of patients
Diarrhoea, All causalities, All grades ([1]; N = 30): 18 (60.0%) Number (%) of patients
Diarrhoea, All causalities, G3 + G4 ([1]; N = 30): 1 (3.3%) Number (%) of patients
Dry Skin, All causalities, All grades ([1]; N = 30): 4 (13.3%) Number (%) of patients
Erythema, All causalities, All grades ([1]; N = 30): 6 (20.0%) Number (%) of patients
Eye Oedema, All causalities, All grades ([1]; N = 30): 14 (46.7%) Number (%) of patients
Eye Oedema, All causalities, G3 + G4 ([1]; N = 30): 1 (3.3%) Number (%) of patients
Eyelid Oedema, All causalities, All grades ([1]; N = 30): 7 (23.3%) Number (%) of patients
Lacrimation Increased, All causalities, All grades ([1]; N = 30): 4 (13.3%) Number (%) of patients
Mucosal Inflammation, All causalities, All grades ([1]; N = 30): 5 (16.7%) Number (%) of patients
Mucosal Inflammation, All causalities, G3 + G4 ([1]; N = 30): 1 (3.3%) Number (%) of patients
Muscle Spasms, All causalities, All grades ([1]; N = 30): 12 (40.0%) Number (%) of patients
Myalgia, All causalities, All grades ([1]; N = 30): 4 (13.3%) Number (%) of patients
Nausea, All causalities, All grades ([1]; N = 30): 15 (50.0%) Number (%) of patients
Neutropenia, All causalities, All grades ([1]; N = 30): 5 (16.7%) Number (%) of patients
Neutropenia, All causalities, G3 + G4 ([1]; N = 30): 2 (6.7%) Number (%) of patients
Oedema Peripheral, All causalities, All grades ([1]; N = 30): 8 (26.7%) Number (%) of patients
Pruritus, All causalities, All grades ([1]; N = 30): 11 (36.7%) Number (%) of patients
Pruritus, All causalities, G3 + G4 ([1]; N = 30): 1 (3.3%) Number (%) of patients
Rash, All causalities, All grades ([1]; N = 30): 12 (40.0%) Number (%) of patients
Rash, All causalities, G3 + G4 ([1]; N = 30): 3 (10.0%) Number (%) of patients
Vomiting, All causalities, All grades ([1]; N = 30): 10 (33.3%) Number (%) of patients
Abdominal Pain Upper, Suspected, All grades [1, 3]: 7 (23.3%) Number (%) of patients
Abdominal Pain, Suspected, All grades [1, 3]: 10 (33.3%) Number (%) of patients
Abdominal Pain, Suspected, G3 + G4 [1, 3]: 1 (3.3%) Number (%) of patients
Anaemia, Suspected, All grades [1, 3]: 4 (13.3%) Number (%) of patients
Anaemia, Suspected, G3 + G4 [1, 3]: 1 (3.3%) Number (%) of patients
Asthenia, Suspected, All grades [1, 3]: 25 (83.3%) Number (%) of patients
Asthenia, Suspected, G3 + G4 [1, 3]: 1 (3.3%) Number (%) of patients
Diarrhoea, Suspected, All grades [1, 3]: 17 (56.7%) Number (%) of patients
Diarrhoea, Suspected, G3 + G4 [1, 3]: 1 (3.3%) Number (%) of patients
Dry Skin, Suspected, All grades [1, 3]: 4 (13.3%) Number (%) of patients
Erythema, Suspected, All grades [1, 3]: 5 (16.7%) Number (%) of patients
Eye Oedema, Suspected, All grades [1, 3]: 14 (46.7%) Number (%) of patients
Eye Oedema, Suspected, G3 + G4 [1, 3]: 1 (3.3%) Number (%) of patients
Eyelid Oedema, Suspected, All grades [1, 3]: 7 (23.3%) Number (%) of patients
Lacrimation Increased, Suspected, All grades [1, 3]: 4 (13.3%) Number (%) of patients
Mucosal Inflammation, Suspected, All grades [1, 3]: 5 (16.7%) Number (%) of patients
Mucosal Inflammation, Suspected, G3 + G4 [1, 3]: 1 (3.3%) Number (%) of patients
Muscle Spasms, Suspected, All grades [1, 3]: 12 (40.0%) Number (%) of patients
Myalgia, Suspected, All grades [1, 3]: 4 (13.3%) Number (%) of patients
Nausea, Suspected, All grades [1, 3]: 14 (46.7%) Number (%) of patients
Neutropenia, Suspected, All grades [1, 3]: 5 (16.7%) Number (%) of patients
Neutropenia, Suspected, G3 + G4 [1, 3]: 2 (6.7%) Number (%) of patients
Oedema Peripheral, Suspected, All grades [1, 3]: 6 (20.0%) Number (%) of patients
Pruritus, Suspected, All grades [1, 3]: 10 (33.3%) Number (%) of patients
Pruritus, Suspected, G3 + G4 [1, 3]: 1 (3.3%) Number (%) of patients
Rash, Suspected, All grades [1, 3]: 12 (40.0%) Number (%) of patients
Rash, Suspected, G3 + G4 [1, 3]: 3 (10.0%) Number (%) of patients
Vomiting, Suspected, All grades [1, 3]: 7 (23.3%) Number (%) of patients
cardiac side-effects ([1]; human, in vivo): no cardiac side-effects have been observed
total number of serious adverse events (SAE) ([1]; in 8/30 patients): 14
patients with dose reduced by 100 or 200 mg/day following grade 3-4 AEs ([1]; six patients): 20%
number of treatment-related SAE ([1]; worsening of a concomitant psoriasis and anaemia): three
patients who never benefited from treatment (early resistance) ([2]; 1/30 patient): 3.3%
OS rates (%) [95% CI] 12 months [2, 4]: 96.7%
OS rates (%) [95% CI] 24 months [2, 4]: 89.9%
OS rates (%) [95% CI] 36 months [2, 4]: 89.9%
PFS rate (%) [95% CI] 6 months [2, 4]: 88.9%
PFS rate (%) [95% CI] 12 months [2, 4]: 76.8%
PFS rate (%) [95% CI] 24 months [2, 4]: 59.7% and 60%
PFS rate (%) [95% CI] 36 months [2, 4]: 55.4% and 55%
PFS Median ([2]; Kaplan-Meier, ITT N = 30): 41.3 months
Metabolic response CMR, At 1 month ([2]; N = 13, FDG-PET, complete metabolic response): 0 (0.0%) n (%)
Metabolic response CMR + PMR, At 1 month ([2]; N = 13, FDG-PET, metabolic response rate): 9 (69.2%) n (%)
Metabolic response PMR, At 1 month ([2]; N = 13, FDG-PET, partial metabolic response, listed as masitinib): 9 (69.2%) n (%)
Metabolic response SMD, At 1 month ([2]; N = 13, FDG-PET, stable metabolic disease, listed as masitinib): 4 (30.8%) n (%)
Metabolic response CMR, At 2 months ([2]; N = 14, FDG-PET, complete metabolic response, listed as masitinib): 3 (21.4%) n (%)
Metabolic response CMR + PMR, At 2 months ([2]; N = 14, FDG-PET, metabolic response rate, listed as masitinib): 12 (85.7%) n (%)
Metabolic response PMR, At 2 months ([2]; N = 14, FDG-PET, partial metabolic response, listed as masitinib): 9 (64.2%) n (%)
Metabolic response SMD, At 2 months ([2]; N = 14, FDG-PET, stable metabolic disease, listed as masitinib): 2 (14.3%) n (%)
Response (RECIST) CR, 2 months ([2]; N = 30, complete response): 0 (0.0%) n (%)
Response (RECIST) CR, Best Response ([2]; N = 30, complete response, listed as masitinib): 1 (3.3%) n (%)
Response (RECIST) CR + PR + SD, 2 months ([2]; N = 30, disease control rate): 29 (96.7%) n (%)
Response (RECIST) CR + PR + SD, Best Response ([2]; N = 30, disease control rate, listed as masitinib): 29 (96.7%) n (%)
Response (RECIST) CR + PR, 2 months ([2]; N = 30, overall response rate): 6 (20.0%) n (%)
Response (RECIST) CR + PR, Best Response ([2]; N = 30, overall response rate, listed as masitinib): 16 (53.3%) n (%)
Response (RECIST) PR, Best Response ([2]; N = 30, partial response, listed as masitinib): 15 (50.0%) n (%)
Response (RECIST) PD, Best Response ([2]; N = 30, progressive disease, listed as masitinib): 1 (3.3%) n (%)
Response (RECIST) SD, Best Response ([2]; N = 30, stable disease, listed as masitinib): 13 (43.3%) n (%)
tumour response according to changes in tumour size (RECIST), evaluable patients ([2]; after 2 months of masitinib): 20%
tumour response according to metabolic response using FDG-PET ([2]; after 2 months of masitinib): 86%
tumour response in patients assessed with DCE-US ([2]; after 2 months of masitinib): 75%
patients with confirmed PR after 2 months, Simon first stage ([2]; first 14 patients): 4/14
Median time to first objective response ([2]; range: 0.8-23.8 months): 5.6 months
